Assays:
[1] = tested on: Z138 mantle cell lymphoma tumour cell lines; assay: In vitro cytotoxicity, MTT assay; assay type: cell-based; details: Z138 cells exposed to the test compounds for 96 hours, cell viability vs DMSO treated cells
Procedure, shortened: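 Z138 cells exposed to compounds for 96 hours, then MTT added for 4 hours. Viable cells quantified from formazan absorbance at 540 nm.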

[2] = molecular target: T1, His-His-USP7 (aa208-560, |C315A|) (Homo sapiens, UniProt Q93009, C315A); assay: Evaluation of the inhibition of USP7 by the Fluorescence Intensity (FLINT) readings; assay type: biochemical; details: 0.25 nM His-His-USP7, compound incubated 60 minutes at 30° C., 500 nM Ubiquitin-Rhodamine-110 substrate; 50% reduction in kinetic rate
T1 construct: His-His-USP7 (aa208-560, |C315A|); His-His (N)
T1 sequence (Q93009 208-560 C315A): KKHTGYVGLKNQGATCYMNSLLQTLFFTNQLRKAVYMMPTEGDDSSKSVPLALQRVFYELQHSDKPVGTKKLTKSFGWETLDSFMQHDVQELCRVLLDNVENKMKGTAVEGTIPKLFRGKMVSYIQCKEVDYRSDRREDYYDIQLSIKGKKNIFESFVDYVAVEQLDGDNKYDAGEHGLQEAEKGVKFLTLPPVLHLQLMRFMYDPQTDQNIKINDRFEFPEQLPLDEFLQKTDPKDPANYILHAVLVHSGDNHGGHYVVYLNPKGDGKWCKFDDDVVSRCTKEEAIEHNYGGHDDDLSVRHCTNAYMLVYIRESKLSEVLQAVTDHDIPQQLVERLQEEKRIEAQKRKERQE
Procedure, shortened: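 IC50 reflects 50% reduction in kinetic rate of rhodamine-110 release (Ex485/Em535, reads every 3 min over 21 min), normalised to DMSO and no-enzyme controls, from an 11-point 4-parameter fit. Substrate is 500 nM Ub-Rh110, added after 60 min, 30 °C preincubation of compound with 0.25 nM USP7 aa208–560 C315A. Buffer is Bicine pH 8.0 with 10% DMSO.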

Compound	IC50 [2]	IC50 ([1]; Homo sapiens, Z-138, 96 h)	IC50 [1]
Nc1c(Oc2ccc(F)cc2)ncn(CC2(O)CCN(C(=O)[C@@H]3CC[C@@](F)(C#Cc4cncnc4)C[C@H]3c3ccccc3)CC2)c1=O [Example 140, 5-amino-3-({1-[(1R,2R,4S)-4-fluoro-2-phenyl-4-[2-(pyrimidin-5-yl)ethynyl]cyclohexanecarbonyl]-4-hydroxypiperidin-4-yl}methyl)-6-(4-fluorophenoxy)-3,4-dihydropyrimidin-1-one]	69.1 nM	0.0498 µM	–
Nc1c(Oc2ccc(F)cc2)ncn(CC2(O)CCN(C(=O)[C@@H]3CC=C(C#Cc4ncccn4)C[C@H]3c3ccccc3)CC2)c1=O [Example 143, 5-amino-6-(4-fluorophenoxy)-3-[(4-hydroxy-1-{[(1R,6R)-6-phenyl-4-[2-(pyrimidin-2-yl)ethynyl]cyclohex-3-en-1-yl]carbonyl}piperidin-4-yl)methyl]pyrimidin-4-one]	56.5 nM	0.0787 µM	–
CO[C@]1(C#Cc2cccnn2)CC[C@@H](C(=O)N2CCC(O)(Cn3cnc(Oc4ccc(F)cc4)c(N)c3=O)CC2)[C@H](c2ccccc2)C1 [Example 146, 5-amino-6-(4-fluorophenoxy)-3-[(4-hydroxy-{[(1R,2R,4R)-4-methoxy-2-phenyl-4-[2-(pyridazin-3-yl)ethynyl]cyclohexyl]carbonyl}piperidin-4-yl)methyl]pyrimidin-4-one]	18.5 nM	–	0.00597 µM
CO[C@@]1(C#Cc2cccnn2)CC[C@@H](C(=O)N2CCC(O)(Cn3cnc(Oc4ccc(F)cc4)c(N)c3=O)CC2)[C@H](c2ccccc2)C1 [Example 147, 5-amino-6-(4-fluorophenoxy)-3-[(4-hydroxy-1-{[(1R,2R,4S)-4-methoxy-2-phenyl-4-[2-(pyridazin-3-yl)ethynyl]cyclohexyl]carbonyl}piperidin-4-yl)methyl]pyrimidin-4-one]	124 nM	0.199 µM	–
Cn1ccnc1C#C[C@@]1(F)CC[C@@H](C(=O)N2CCC(O)(Cn3cnc(Oc4ccc(F)cc4)c(N)c3=O)CC2)[C@H](c2ccccc2)C1 [Example 149, 5-amino-3-[(1-{[(1R,2R,4R)-4-fluoro-4-[2-(1-methylimidazol-2-yl)ethynyl]-2-phenylcyclohexyl]carbonyl}-4-hydroxypiperidin-4-yl)methyl]-6-(4-fluorophenoxy)pyrimidin-4-one]	8.55 nM	0.259 µM	–
Cc1cnc(C#CC2(F)CCC(C(=O)N3CCC(O)(Cn4cnc(Oc5ccc(F)cc5)c(N)c4=O)CC3)C(c3ccccc3)C2)cn1 [Example 150, 5-amino-3-({1-[1R,2R,4S)-4-fluoro-4-[2-(5-methylpyrazin-2-yl)ethynyl]-2-phenylcyclohexanecarbonyl]-4-hydroxypiperidin-4-yl}methyl)-6-(4-fluorophenoxy)-3,4-dihydropyrimidin-4-one]	37.7 nM	0.0258 µM	–
Cn1ccnc1C#C[C@]1(F)CC[C@@H](C(=O)N2CCC(O)(Cn3cnc(Oc4ccc(F)cc4)c(N)c3=O)CC2)[C@H](c2ccccc2)C1 [Example 152]	30.3 nM	0.268 µM	–
COc1nccnc1C#C[C@@]1(F)CC[C@@H](C(=O)N2CCC(O)(Cn3cnc(Oc4ccc(F)cc4)c(N)c3=O)CC2)[C@H](c2ccccc2)C1 [Example 154, 5-amino-3-({1-[(1R,2R,4R)-4-fluoro-4-[2-(3-methoxypyrazin-2-yl)ethynyl]-2-phenylcyclohexanecarbonyl]-4-hydroxypiperidin-4-yl}methyl)-6-(4-fluorophenoxy)-3,4-dihydropyrimidin-4-one]	24.7 nM	0.016 µM	–
CO[C@]1(C#Cc2cnccn2)CC[C@@H](C(=O)N2CCC(O)(Cn3cnc(Oc4ccc(F)cc4)c(N)c3=O)CC2)[C@H](c2ccccc2)C1 [Example 156, 5-amino-6-(4-fluorophenoxy)-3-({4-hydroxy-1-[(1R,2R,4R)-4-methoxy-2-phenyl-4-[2-(pyrazin-2-yl)ethynyl]cyclohexanecarbonyl]piperidin-4-yl}methyl)-3,4-dihydropyrimidin-4-one]	29.6 nM	0.00653 µM	–
Nc1c(Oc2ccc(F)cc2)ncn(CC2(O)CCN(C(=O)[C@@H]3CC[C@](F)(C#Cc4cc(F)ccn4)C[C@H]3c3ccccc3)CC2)c1=O [Example 157, 5-amino-3-({1-[(1R,2R,4R)-4-fluoro-4-[2-(4-fluoropyridin-2-yl)ethynyl]-2-phenylcyclohexanecarbonyl]-4-hydroxypiperidin-4-yl}methyl)-6-(4-fluorophenoxy)-3,4-dihydropyrimidin-4-one]	6.77 nM	0.00716 µM	–
Nc1cccc(C#C[C@@]2(F)CC[C@@H](C(=O)N3CCC(O)(Cn4cnc(Oc5ccc(F)cc5)c(N)c4=O)CC3)[C@H](c3ccccc3)C2)n1 [Example 161, 5-amino-3-[(1-{[(1R,2R,4R)-4-[2-(6-aminopyridin-2-yl)ethynyl]-4-fluoro-2-phenylcyclohexyl]carbonyl}-4-hydroxypiperidin-4-yl)methyl]-6-(4-fluurophenoxy)pyrimidin-4-one]	29.4 nM	–	0.0126 µM
Cc1ccc(C#C[C@@]2(F)CC[C@@H](C(=O)N3CC[C@](O)(Cn4cnc(Oc5ccc(F)cc5)c(N)c4=O)C(F)(F)C3)[C@H](c3ccccc3)C2)nn1 [Example 162, 5-amino-3-[[(4S)-3,3-difluoro-1-[(1R,2R,4R)-4-fluoro-4-[2-(6-methylpyridazin-3-yl)ethynyl]-2-phenylcyclohexanecarbonyl]-4-hydroxypiperidin-4-yl]methyl]-6-(4-fluorophenoxy)-3,4-dihydropyrimidin-4-one]	10 nM	0.00647 µM	–

The remaining compounds from weak to strong by IC50 [2], led by results:

IC50 [2]	Compound	IC50 ([1]; Homo sapiens, Z-138, 96 h)	IC50 [1]
58.8 nM	Nc1c(Oc2ccc(F)cc2)ncn(CC2(O)CCN(C(=O)[C@@H]3CC[C@@](F)(C#Cc4ncccn4)C[C@H]3c3ccccc3)CC2)c1=O [Example 142, 5-amino-3-[(1-{[(1R,2R,4S)-4-fluoro-2-phenyl-4-[2-(pyrimidin-2-yl)ethynyl]cyclohexyl]carbonyl}-4-hydroxypiperidin-4-yl)methyl]-6-(4-fluorophenoxy)pyrimidin-4-one]	0.0176 µM	–
41 nM	Nc1c(Oc2ccc(F)cc2)ncn(CC2(O)CCN(C(=O)[C@@H]3CC[C@](F)(C#Cc4ncccn4)C[C@H]3c3ccccc3)CC2)c1=O [Example 141, 5-amino-3-[(1-{[(1R,2R,4R)-4-fluoro-2-phenyl-4-[2-(pyrimidin-2-yl)ethynyl]cyclohexyl]carbonyl}-4-hydroxypiperidin-4-yl)methyl]-6-(4-fluorophenoxy)pyrimidin-4-one]	0.0117 µM	–
37.1 nM	Nc1c(Oc2ccc(F)cc2)ncn(CC2(O)CCN(C(=O)[C@@H]3CC[C@](F)(C#Cc4nccnc4Cl)C[C@H]3c3ccccc3)CC2)c1=O [Example 153, 5-amino-3-({1-[(1R,2R,4R)-4-[2-(3-chloropyrazin-2-yl)ethynyl]-4-fluoro-2-phenylcyclohexanecarbonyl]-4-hydroxypiperidin-4-yl}methyl)-6-(4-fluorophenoxy)-3,4-dihydropyrimidin-4-one]	0.0175 µM	–
28.2 nM	CO[C@]1(C#Cc2nccn2C)CC[C@@H](C(=O)N2CCC(O)(Cn3cnc(Oc4ccc(F)cc4)c(N)c3=O)CC2)[C@H](c2ccccc2)C1 [Example 159, 5-amino-6-(4-fluorophenoxy)-3-[(4-hydroxy-1-{[(1R,2R,4R)-4-methoxy-4-[2-(1-methylimidazol-2-yl)ethynyl]-2-phenytcyclohexyl]carbonyl}piperidin-4-yl)methyl]pyrimidin-4-one]	0.0168 µM	–
26.6 nM	Cc1nccnc1C#C[C@@]1(F)CC[C@@H](C(=O)N2CCC(O)(Cn3cnc(Oc4ccc(F)cc4)c(N)c3=O)CC2)[C@H](c2ccccc2)C1 [Example 148, 5-amino-3-({1-[(1R,2R,4R)-4-fluoro-4-[2-(3-methylpyrazin-2yl)ethynyl]-2-phenylcyclohexanecarbonyl]-4-hydroxypiperidin-4-yl}methyl)-6-(4-fluorophenoxy)-3,4-dihydropyrimidin-4-one]	0.0101 µM	–
21 nM	Nc1c(Oc2ccc(F)cc2)ncn(CC2(O)CCN(C(=O)[C@@H]3CC[C@](F)(C#Cc4cncnc4)C[C@H]3c3ccccc3)CC2)c1=O [Example 144, 5-amino-3-({1-[(1R,2R,4R)-4-fluoro-2-phenyl-4-[2-(pyrimidin-5-yl)ethynyl]cyclohexanecarbonyl]-4-hydroxypiperidin-4-yl}methyl)-6-(4-fluorophenyoxy)-3,4-dihydropyrimidin-4-one]	0.0122 µM	–
11.4 nM	Cc1cnc(C#C[C@]2(F)CC[C@@H](C(=O)N3CCC(O)(Cn4cnc(Oc5ccc(F)cc5)c(N)c4=O)CC3)[C@H](c3ccccc3)C2)cn1 [Example 151, 5-amino-3-({1-[(1R,2R,4S)-4-fluoro-4-[2-(5-methylpyrazin-2-yl)ethynyl]-2-phenylcyclohexanecarbonyl]-4-hydroxypiperidin-4-yl}methyl)-6-(4-fluorophenoxy)-3,4-dihydropyrimidin-4-one]	0.0191 µM	–
8.66 nM	Nc1c(Oc2ccc(F)cc2)ncn(CC2(O)CCN(C(=O)[C@@H]3CC[C@](F)(C#Cc4cccnn4)C[C@H]3c3ccccc3)CC2)c1=O [Example 145, 5-amino-3-[(1-{[(1R,2R,4R)-4-fluoro-2-phenyl-4-[2-(pyridazin-3-yl)ethynyl]cyclohexyl]carbonyl}-4-hydroxypiperidin-4-yl)methyl]-6-(4-fluorophenoxy)pyrimidin-4-one]	0.00231 µM	–

Source: patent US20210221785A1, “AMINO-PYRIMIDONYL DERIVATIVES, A PROCESS FOR THEIR PREPARATION AND PHARMACEUTICAL COMPOSITIONS CONTAINING THEM” (LES LABORATOIRES SERVIER, priority 2018, published 2021)
